A short description of the series: Bovine Brain Endothelial Cells (BBMEC) transport studies, in vitro blood-brain barrier permeability. Conditions: mean ± standard deviation. The class given is in vitro ADME. Here is the method: The compounds of this invention are capable of crossing the blood-brain barrier (BBB) as shown by their ability to penetrate across a membrane of a monolayer of bovine brain microvessel endothelial cells, an in vitro model for B3B permeability.
Bovine Brain Endothelial Cells (BBMEC) TIransport Studies
The procedure was performed according to: Kenneth L. Audus et al., Brain Microvessel Endothelial Cell Culture System (Chapter 13) pp 239-258. In Models for Assessing Drug Absorption and Metabolism, Ronald T. Borchardt et al. eds., Plenum Press, New York 1996, incorporated herein by reference.

Structures are written as SMILES.

For the molecule `COc1c(O[Si](C(C)C)(C(C)C)C(C)C)cccc1C(OC(=O)[C@@H](OC)c1ccccc1)C1CCN(CCc2ccc(F)cc2)CC1` (stereo partly drawn) [Example 1C, (S)-Methoxy-2-phenyl-acetic acid {1-[2-(4-fluoro-phenyl)-ethyl]-piperidin-4-yl}-(2-methoxy-3-triisopropylsilanyloxy-phenyl)-methyl ester], the apparent permeability (Papp) – broadly, the rate of passage across a membrane or cell layer, normalised by area and donor concentration – at 5.4 µM (5.4 μM) is 41.4 ± 16.4 ×10⁻⁶ cm/s. Where the note is “16 μM”, this molecule showed a Papp at 16 µM of 52.5 ± 9.5 ×10⁻⁶ cm/s.
